Assay results: patent US11034661B2, “Substituted N′-hydroxycarbamimidoyl-1,2,5-oxadiazole compounds as indoleamine 2,3-dioxygenase IDO inhibitors” (Merck Sharp & Dohme Corp., priority 2017, dated 2021)

Key:
HIS-tagged IDO1 protein = HIS-tagged IDO1 protein (Homo sapiens (Human), UniProt P14902); test: IDO1 Enzyme Assay; type: biochemical; settings: recombinant IDO1 40 nM, tryptophan substrate, fluorescence readout
Description: Biological Assays IDO1 Enzyme Assay
(§1) Compounds to be tested were serially diluted in ten 3-fold steps in DMSO starting from 10 mM DMSO stocks. Compound dilutions or DMSO alone were then dispensed from the dilution plate into a Greiner black 384-well assay plate (catalog #781086) using an Echo 555 acoustic liquid handler (Labcyte).
HIS-tagged IDO1 protein was recombinantly expressed in Escherichia coli using ZYP5052 autoinduction media supplemented with 500 μM delta aminolevulinic acid for 48 hours at 16 degrees Celsius. IDO1 protein was purified using Ni^2+-affinity resin and size exclusion chromatography. Purified protein was then diluted in assay buffer (50 mM Tris pH 7.0, 1% glycerol, 20 μM methylene blue, 0.05% Tween-20, 20 mM sodium ascorbate, 100 units/mL catalase to obtain a final IDO1 concentration of 40 nM. IDO1 solution […] or buffer alone […] was dispensed to wells of the assay plate using a BioRAPTR liquid dispenser (Beckman Coulter). Assay plates containing compound and IDO1 enzyme were incubated at room temperature for 30 minutes. Afterwards, 10 μL of 400 μM tryptophan in assay buffer were added to each well of the assay plate using a BioRAPTR liquid dispenser. Plates were incubated at room temperature for 60 minutes and reactions were quenched by addition of 10 μL of 0.5 M methyl isonipecotate in dimethyl sulfoxide. Plates were sealed and incubated at 37 degrees Celsius for 4 hours or 50 degrees Celsius for 2 hours. The plates are allowed to cool and then centrifuged for 1 minute at 1000×g. The resulting fluorescence was measured in an Envision plate reader (Perkin Elmer) with a 400/25 nm excitation filter and an 510/20 nm emission filter.
Potencies were calculated by linear least squares fit to the four parameter logistic IC50 equation.

[1] = biological target: IDO1 in Hela cells stimulated with IFNγ (Homo sapiens (Human), UniProt P14902); test: IDO1 Cellular Assay in Hela Cells Stimulated with IFNγ; type: cell-based; settings: IFNγ 100 ng/mL, about 48 hours, fluorescence readout, read-out: IDO1 HELA Cell Assay, IC50
Description: IDO1 Cellular Assay in Hela Cells Stimulated with IFNγ
Hela cells were cultured in complete Hela culture medium (90% EMEM, 10% heat-inactivated fetal bovine serum) and expanded to about 1×10^9 cells. The cells were then collected and frozen down at 10×10^6 cells/vial in 1 mL frozen medium (90% complete Hela culture medium, 10% DMSO)
as §1, with “stocks in Echo low volume plate(s).” for “stocks.”, “plate(s)” for “plate”, “into” for “into a”, “#781086, 50 nL/well)” for “#781086)”, “550” for “555”
Frozen Hela cells were thawed and transferred into Hela assay medium (99% complete Hela culture medium, 1% Pen/Strep) with 20 mL medium/vial of cells. The cells were spun down at 250 g in a table top centrifuge for 5 min and suspended in same volume of Hela assay medium. The cells were then counted and adjusted to a density of 2×10^5 cells/ml in Hela assay medium. Sterile L-tryptophan were added to the cells with final concentration of 300 uM L-tryptophan. A small aliquot (2 mL/plate) of Hela cells were set aside and were not treated with IFNγ, to serve as the Max-E control. The rest of Hela cells were added with sterile IFNγ (Cat #285-IF, R & D systems) with a final concentration of 100 ng/mL.
Hela cells with and without IFNγ were dispensed to the respective wells of 384-well assay plates containing the compounds. The plates were incubated for about 48 hours at a 37° C., 5% CO2 incubator. Afterwards, 12 μL of 0.5 M methyl isonipecotate in dimethyl sulfoxide were added into each well and the plates were sealed and incubated at 37° C. without CO2 overnight. The plates were centrifuged for 1 min at 200×g. The resulting fluorescence was measured in a Spectramax plate reader (Molecular Devices) with a 400 nm excitation filter and a 510 nm emission filter.
The fluorescence intensity of each well was corrected for the background observed in wells with non-IFNγ-treated cells and was expressed as a fraction of the intensity observed in wells of IFNγ-treated cells and DMSO only. Potencies were calculated by linear least squares fit to the four parameter logistic IC50 equation.

Sequence of HIS-tagged IDO1 protein (P14902 whole entry): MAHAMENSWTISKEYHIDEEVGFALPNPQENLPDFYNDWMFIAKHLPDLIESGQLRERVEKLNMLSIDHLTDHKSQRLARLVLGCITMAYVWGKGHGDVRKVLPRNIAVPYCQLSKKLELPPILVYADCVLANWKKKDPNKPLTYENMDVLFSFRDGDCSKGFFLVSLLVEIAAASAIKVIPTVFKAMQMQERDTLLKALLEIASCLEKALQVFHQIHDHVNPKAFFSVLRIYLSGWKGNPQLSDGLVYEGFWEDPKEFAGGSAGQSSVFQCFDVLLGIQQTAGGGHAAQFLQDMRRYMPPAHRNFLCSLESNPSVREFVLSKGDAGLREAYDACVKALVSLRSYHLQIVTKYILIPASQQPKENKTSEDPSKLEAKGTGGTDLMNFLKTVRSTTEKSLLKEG
Sequence of IDO1 in Hela cells stimulated with IFNγ (P14902 whole entry): as above

Compound: NS(=O)(=O)N1CC[C@H](Oc2nonc2/C(=N/O)N[C@H]2Cc3ccc(F)cc32)C1 [Example 32, N-[(7S)-4-fluorobicyclo[4.2.0]octa-1,3,5-trien-7-yl]-N′-hydroxy-4-{[(3S)-1-sulfamoylpyrrolidin-3-yl]oxy}-1,2,5-oxadiazole-3-carboximidamide]
- IC50 (HIS-tagged IDO1 protein): 308 nM
- IC50 [1]: 340 nM

Compound: CC(Oc1nonc1/C(=N/O)NC1Cc2ccc(F)cc21)C(=O)NCCO (stereo not shown) [Example 23, 2-({4-[N-(4-fluorobicyclo[4.2.0]octa-1,3,5-trien-7-yl)-N′-hydroxycarbamimidoyl]-1,2,5-oxadiazol-3-yl}oxy)-N-(2-hydroxyethyl)propanamide]
- IC50 (HIS-tagged IDO1 protein): 1670 nM
- IC50 [1]: 1930 nM

Compound: CC(C)(COc1nonc1/C(=N/O)N[C@H]1Cc2ccc(F)cc21)NC(=O)CO [Example 35, N-{1-[(4-{N-[(7S)-4-fluorobicyclo[4.2.0]octa-1,3,5-trien-7-yl]-N′-hydroxycarbamimidoyl}-1,2,5-oxadiazol-3-yl)oxy]-2-methylpropan-2-yl}-2-hydroxyacetamide]
- IC50 (HIS-tagged IDO1 protein): 2150 nM
- IC50 [1]: 2030 nM

Compound: NS(=O)(=O)N1CC(Oc2nonc2/C(=N/O)N[C@H]2Cc3ccc(F)cc32)C1 [Example 62, (S,Z)-N-(4-fluorobicyclo[4.2.0]octa-1(6),2,4-trien-7-yl)-N′-hydroxy-4-((1-sulfamoylazetidin-3-yl)oxy)-1,2,5-oxadiazole-3-carboximidamide]
- IC50 (HIS-tagged IDO1 protein): 24 nM
- IC50 [1]: 44 nM

Compound: CC(=O)NC[C@@H](CO)Oc1nonc1/C(=N/O)N[C@H]1Cc2ccc(F)cc21 [Example 55, N-{(2S)-2-[(4-{N-[(7S)-4-fluorobicyclo[4.2.0]octa-1,3,5-trien-7-yl]-N′-hydroxycarbamimidoyl}-1,2,5-oxadiazol-3-yl)oxy]-3-hydroxypropyl}acetamide]
- IC50 (HIS-tagged IDO1 protein): 216 nM
- IC50 [1]: 328 nM

Compound: CC(=O)N[C@@H](CO)COc1nonc1/C(=N/O)N[C@H]1Cc2ccc(F)cc21 [Example 52, N-{(2S)-1-[(4-{N-[(7S)-4-fluorobicyclo[4.2.0]octa-1,3,5-trien-7-yl]-N′-hydroxycarbamimidoyl}-1,2,5-oxadiazol-3-yl)oxy]-3-hydroxypropan-2-yl}acetamide]
- IC50 (HIS-tagged IDO1 protein): 1810 nM
- IC50 [1]: 1290 nM

Compound: O=C(CO)N1CC[C@H](Oc2nonc2/C(=N/O)N[C@H]2Cc3ccc(F)cc32)C1 [Example 25, N-[(7S)-4-fluorobicyclo[4.2.0]octa-1,3,5-trien-7-yl]-N′-hydroxy-4-{[(3S)-1-(hydroxyacetyl)pyrrolidin-3-yl]oxy}-1,2,5-oxadiazole-3-carboximidamide]
- IC50 (HIS-tagged IDO1 protein): 1200 nM
- IC50 [1]: 2000 nM

Compound: COC(=O)NCCOc1nonc1/C(=N/O)N[C@H]1Cc2ccc(F)cc21 [Example 41, methyl {2-[(4-{N-[(7S)-4-fluorobicyclo[4.2.0]octa-1,3,5-trien-7-yl]-N′-hydroxycarbamimidoyl}-1,2,5-oxadiazol-3-yl)oxy]ethyl}carbamate]
- IC50 (HIS-tagged IDO1 protein): 141 nM
- IC50 [1]: 181 nM

Compound: O/N=C(\N[C@H]1Cc2ccc(F)cc21)c1nonc1OCCn1cnnc1 [Example 28, N-[(7S)-4-fluorobicyclo[4.2.0]octa-1,3,5-trien-7-yl]-N′-hydroxy-4-[2-(4H-1,2,4-triazol-4-yl)ethoxy]-1,2,5-oxadiazole-3-carboximidamide]
- IC50 (HIS-tagged IDO1 protein): 396 nM
- IC50 [1]: 561 nM

Compound: NS(=O)(=O)CCOc1nonc1/C(=N/O)N[C@H]1Cc2ccc(F)cc21 [Example 34, N-[(7S)-4-fluorobicyclo[4.2.0]octa-1,3,5-trien-7-yl]-N′-hydroxy-4-(2-sulfamoylethoxy)-1,2,5-oxadiazole-3-carboximidamide]
- IC50 (HIS-tagged IDO1 protein): 289 nM
- IC50 [1]: 870 nM

Compound: C[C@@H](O)CNC(=O)COc1nonc1/C(=N/O)N[C@H]1Cc2ccc(F)cc21 [Example 10, 2-[(4-{N-[(7S)-4-fluorobicyclo[4.2.0]octa-1,3,5-trien-7-yl]-N′-hydroxycarbamimidoyl}-1,2,5-oxadiazol-3-yl)oxy]-N-[(2R)-2-hydroxypropyl]acetamide]
- IC50 (HIS-tagged IDO1 protein): 100 nM
- IC50 [1]: 335 nM

Compound: NC(=O)COc1nonc1/C(=N/O)N[C@H]1Cc2ccc(F)cc21 [Example 17, 2-[(4-{N-[(7S)-4-fluorobicyclo[4.2.0]octa-1,3,5-trien-7-yl]-N′-hydroxycarbamimidoyl}-1,2,5-oxadiazol-3-yl)oxy]acetamide]
- IC50 (HIS-tagged IDO1 protein): 186 nM
- IC50 [1]: 220 nM

Compound: C[C@@H](CNC(=O)CO)Oc1nonc1/C(=N/O)N[C@H]1Cc2ccc(F)cc21 [Example 46, N-{(2S)-2-[(4-{N-[(7S)-4-fluorobicyclo[4.2.0]octa-1,3,5-trien-7-yl]-N′-hydroxycarbamimidoyl}-1,2,5-oxadiazol-3-yl)oxy]propyl}-2-hydroxyacetamide]
- IC50 (HIS-tagged IDO1 protein): 2450 nM
- IC50 [1]: 1640 nM

Compound: NC(=O)N(CCO)CCOc1nonc1/C(=N/O)NC1Cc2ccc(F)cc21 (stereo not shown) [Example 15, 4-{2-[carbamoyl(2-hydroxyethyl)amino]ethoxy}-N-(4-fluorobicyclo[4.2.0]octa-1,3,5-trien-7-yl)-N′-hydroxy-1,2,5-oxadiazole-3-carboximidamide]
- IC50 (HIS-tagged IDO1 protein): 479 nM
- IC50 [1]: 685 nM

Compound: CC(=O)NC(CO)COc1nonc1/C(=N/O)N[C@H]1Cc2ccc(F)cc21 (stereo partly drawn) [Example 39, N-{1-[(4-{N-[(7S)-4-fluorobicyclo[4.2.0]octa-1,3,5-trien-7-yl]-N′-hydroxycarbamimidoyl}-1,2,5-oxadiazol-3-yl)oxy]-3-hydroxypropan-2-yl}acetamide]
- IC50 (HIS-tagged IDO1 protein): 334 nM
- IC50 [1]: 446 nM

Compound: C[C@H](CO)NC(=O)COc1nonc1/C(=N/O)N[C@H]1Cc2ccc(F)cc21 [Example 8, 2-[(4-{N-[(7S)-4-fluorobicyclo[4.2.0]octa-1,3,5-trien-7-yl]-N′-hydroxycarbamimidoyl}-1,2,5-oxadiazol-3-yl)oxy]-N-[(2R)-1-hydroxypropan-2-yl]acetamide]
- IC50 (HIS-tagged IDO1 protein): 110 nM
- IC50 [1]: 416 nM

Compound: O/N=C(\N[C@H]1Cc2ccc(F)cc21)c1nonc1OC1CNC1 [Example 21, 4-[(azetidin-3-yl)oxy]-N-[(7S)-4-fluorobicyclo[4.2.0]octa-1,3,5-trien-7-yl]-N′-hydroxy-1,2,5-oxadiazole-3-carboximidamide]
- IC50 (HIS-tagged IDO1 protein): 224 nM
- IC50 [1]: 1780 nM

Compound: NS(=O)(=O)N1CCC(Oc2nonc2/C(=N/O)N[C@H]2Cc3ccc(F)cc32)CC1 [Example 49, N-[(7S)-4-fluorobicyclo[4.2.0]octa-1,3,5-trien-7-yl]-N′-hydroxy-4-[(1-sulfamoylpiperidin-4-yl)oxy]-1,2,5-oxadiazole-3-carboximidamide]
- IC50 (HIS-tagged IDO1 protein): 10700 nM
- IC50 [1]: 7310 nM

Compound: O=C(NCCOc1nonc1/C(=N/O)N[C@H]1Cc2ccc(F)cc21)[C@@H](O)CO [Example 26, (2S)-N-{2-[(4-{N-[(7S)-4-fluorobicyclo[4.2.0]octa-1,3,5-trien-7-yl]-N′-hydroxycarbamimidoyl}-1,2,5-oxadiazol-3-yl)oxy]ethyl}-2,3-dihydroxypropanamide]
- IC50 (HIS-tagged IDO1 protein): 214 nM
- IC50 [1]: 284 nM

Compound: O=C(COc1nonc1/C(=N/O)N[C@H]1CCc2ccc(F)cc21)NCCO [Example 13, 2-[(4-{N-[(1S)-6-fluoro-2,3-dihydro-1H-inden-1-yl]-N′-hydroxycarbamimidoyl}-1,2,5-oxadiazol-3-yl)oxy]-N-(2-hydroxyethyl)acetamide]
- IC50 (HIS-tagged IDO1 protein): 483 nM
- IC50 [1]: 774 nM
